Paper PMC7206119, “RIP1 inhibition blocks inflammatory diseases but not tumor growth or metastases” (Cell Death and Differentiation, 2019)

Key:
Assay in all cases: biochemical
Parameters in all cases: Thermo Fisher SelectScreen kinase panel: Z'-LYTE and Adapta activity, LanthaScreen binding
[1] = biological target: FLT4 (Homo sapiens, UniProt P35916)
How it was run: (§1)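 Single-concentration panel: 10 µM GNE684 in KINOMEscan scanMAX binding (468 kinases) and in a 221-kinase panel run as Z'-LYTE/Adapta activity or LanthaScreen binding assays.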

[2] = biological target: EPHA3 (Homo sapiens, UniProt P29320)
How it was run: as §1

[3] = biological target: T1, FAK (Homo sapiens, UniProt Q05397)
T1 construct: gene PTK2
How it was run: as §1

[4] = biological target: MELK (Homo sapiens, UniProt Q14680)
How it was run: as §1

[5] = biological target: TTK (Homo sapiens, UniProt P33981)
Chain of TTK (P33981 whole entry): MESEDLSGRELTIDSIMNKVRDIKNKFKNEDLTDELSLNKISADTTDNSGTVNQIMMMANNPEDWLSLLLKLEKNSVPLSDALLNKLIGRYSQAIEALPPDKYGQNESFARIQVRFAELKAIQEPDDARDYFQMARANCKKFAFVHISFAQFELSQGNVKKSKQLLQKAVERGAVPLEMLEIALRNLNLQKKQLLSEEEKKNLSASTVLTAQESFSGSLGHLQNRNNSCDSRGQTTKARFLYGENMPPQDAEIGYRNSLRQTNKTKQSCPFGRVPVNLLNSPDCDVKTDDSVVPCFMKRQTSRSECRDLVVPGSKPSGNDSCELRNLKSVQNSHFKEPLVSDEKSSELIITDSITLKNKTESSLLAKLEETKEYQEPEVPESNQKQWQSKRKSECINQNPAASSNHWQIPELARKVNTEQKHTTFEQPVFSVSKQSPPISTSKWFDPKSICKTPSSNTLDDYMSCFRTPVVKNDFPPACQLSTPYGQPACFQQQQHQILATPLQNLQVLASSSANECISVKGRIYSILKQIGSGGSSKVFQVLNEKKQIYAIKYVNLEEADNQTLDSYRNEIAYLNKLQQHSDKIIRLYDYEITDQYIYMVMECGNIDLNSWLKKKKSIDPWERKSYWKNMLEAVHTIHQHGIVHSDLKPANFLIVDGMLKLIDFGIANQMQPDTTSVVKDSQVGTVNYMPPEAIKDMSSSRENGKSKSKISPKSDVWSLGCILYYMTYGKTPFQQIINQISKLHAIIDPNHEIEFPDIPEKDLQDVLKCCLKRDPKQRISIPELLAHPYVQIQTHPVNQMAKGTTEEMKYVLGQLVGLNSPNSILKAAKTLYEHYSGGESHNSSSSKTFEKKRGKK
How it was run: as §1

[6] = biological target: MAP4K4 (Homo sapiens, UniProt O95819)
Chain of MAP4K4 (O95819 whole entry): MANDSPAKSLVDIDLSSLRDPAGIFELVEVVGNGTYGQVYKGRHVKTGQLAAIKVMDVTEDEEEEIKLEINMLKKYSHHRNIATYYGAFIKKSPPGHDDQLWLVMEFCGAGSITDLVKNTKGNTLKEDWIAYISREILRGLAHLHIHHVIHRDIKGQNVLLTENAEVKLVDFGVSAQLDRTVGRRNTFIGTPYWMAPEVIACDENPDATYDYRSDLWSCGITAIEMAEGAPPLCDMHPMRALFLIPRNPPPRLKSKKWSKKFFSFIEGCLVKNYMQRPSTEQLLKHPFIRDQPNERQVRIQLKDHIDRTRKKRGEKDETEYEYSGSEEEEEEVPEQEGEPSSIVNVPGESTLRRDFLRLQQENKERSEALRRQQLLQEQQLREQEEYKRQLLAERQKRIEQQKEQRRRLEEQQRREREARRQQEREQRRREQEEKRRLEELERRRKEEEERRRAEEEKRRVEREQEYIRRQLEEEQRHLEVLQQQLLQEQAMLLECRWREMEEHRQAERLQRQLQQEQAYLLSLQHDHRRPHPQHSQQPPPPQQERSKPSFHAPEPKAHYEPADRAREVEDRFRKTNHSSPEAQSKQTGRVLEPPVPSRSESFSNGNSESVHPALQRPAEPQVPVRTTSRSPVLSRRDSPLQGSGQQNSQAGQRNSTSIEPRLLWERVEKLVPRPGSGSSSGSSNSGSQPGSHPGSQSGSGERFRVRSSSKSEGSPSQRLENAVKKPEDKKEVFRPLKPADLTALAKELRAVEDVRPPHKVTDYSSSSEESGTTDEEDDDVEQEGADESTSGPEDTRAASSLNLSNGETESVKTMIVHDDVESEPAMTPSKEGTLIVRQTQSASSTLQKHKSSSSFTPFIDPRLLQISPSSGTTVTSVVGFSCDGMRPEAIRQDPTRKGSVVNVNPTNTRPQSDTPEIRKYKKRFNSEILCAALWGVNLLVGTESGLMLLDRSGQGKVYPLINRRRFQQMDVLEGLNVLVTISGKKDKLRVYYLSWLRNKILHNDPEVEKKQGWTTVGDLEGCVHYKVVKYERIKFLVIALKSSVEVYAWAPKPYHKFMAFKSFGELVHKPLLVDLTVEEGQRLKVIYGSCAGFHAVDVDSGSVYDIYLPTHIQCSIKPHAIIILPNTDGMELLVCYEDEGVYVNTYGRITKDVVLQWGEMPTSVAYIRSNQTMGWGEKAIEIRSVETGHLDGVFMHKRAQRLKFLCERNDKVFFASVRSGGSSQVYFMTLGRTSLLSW
How it was run: as §1

[7] = biological target: LTK (Homo sapiens, UniProt P29376)
How it was run: as §1

[8] = biological target: PAK1 (Homo sapiens, UniProt Q13153)
Chain of PAK1 (Q13153 whole entry): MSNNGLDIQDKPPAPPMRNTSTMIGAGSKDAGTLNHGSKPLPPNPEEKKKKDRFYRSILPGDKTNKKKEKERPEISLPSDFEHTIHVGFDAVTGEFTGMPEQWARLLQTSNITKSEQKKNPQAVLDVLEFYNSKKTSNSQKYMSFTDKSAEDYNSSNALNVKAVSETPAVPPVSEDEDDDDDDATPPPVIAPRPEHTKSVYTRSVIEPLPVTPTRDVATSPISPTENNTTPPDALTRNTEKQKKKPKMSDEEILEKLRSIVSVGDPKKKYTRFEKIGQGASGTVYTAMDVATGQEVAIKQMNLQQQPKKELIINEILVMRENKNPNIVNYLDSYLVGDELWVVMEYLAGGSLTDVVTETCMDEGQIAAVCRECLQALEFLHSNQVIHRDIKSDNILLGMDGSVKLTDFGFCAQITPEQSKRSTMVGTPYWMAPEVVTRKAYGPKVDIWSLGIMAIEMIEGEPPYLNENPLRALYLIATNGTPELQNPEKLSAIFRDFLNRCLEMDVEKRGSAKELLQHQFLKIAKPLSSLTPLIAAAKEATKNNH
How it was run: as §1

[9] = biological target: KDR (Homo sapiens, UniProt P35968)
How it was run: as §1

[10] = biological target: CLK2 (Homo sapiens, UniProt P49760)
How it was run: as §1

[11] = biological target: FRK (Homo sapiens, UniProt P42685)
How it was run: as §1

[12] = biological target: T2, TSSK1 (Homo sapiens, UniProt Q9BXA7)
T2 construct: gene TSSK1B
How it was run: as §1

[13] = biological target: ACVR2B (Homo sapiens, UniProt Q13705)
Chain of ACVR2B (Q13705 whole entry): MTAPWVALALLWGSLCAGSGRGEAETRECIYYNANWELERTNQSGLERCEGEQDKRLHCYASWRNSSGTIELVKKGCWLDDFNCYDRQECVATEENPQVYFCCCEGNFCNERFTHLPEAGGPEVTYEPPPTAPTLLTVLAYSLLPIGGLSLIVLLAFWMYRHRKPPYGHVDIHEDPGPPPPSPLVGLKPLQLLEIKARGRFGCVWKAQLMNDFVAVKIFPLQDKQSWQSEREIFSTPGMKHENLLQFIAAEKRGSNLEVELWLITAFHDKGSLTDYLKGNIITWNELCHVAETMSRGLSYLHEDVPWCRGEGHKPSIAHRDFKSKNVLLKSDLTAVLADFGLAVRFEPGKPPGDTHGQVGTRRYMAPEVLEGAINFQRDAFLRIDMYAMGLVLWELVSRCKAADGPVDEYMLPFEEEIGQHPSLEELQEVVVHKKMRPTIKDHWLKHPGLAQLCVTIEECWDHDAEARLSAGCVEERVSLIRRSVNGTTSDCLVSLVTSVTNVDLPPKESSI
How it was run: as §1

[14] = biological target: T3, ZAK (Homo sapiens, UniProt Q9NYL2)
T3 construct: gene MAP3K20
How it was run: as §1

[15] = biological target: PLK1 (Homo sapiens, UniProt P53350)
How it was run: as §1

[16] = biological target: NEK1 (Homo sapiens, UniProt Q96PY6)
How it was run: as §1

[17] = biological target: T4, p38_alpha(direct) (Homo sapiens, UniProt Q16539)
T4 construct: gene MAPK14; direct
T4 sequence (Q16539 whole entry): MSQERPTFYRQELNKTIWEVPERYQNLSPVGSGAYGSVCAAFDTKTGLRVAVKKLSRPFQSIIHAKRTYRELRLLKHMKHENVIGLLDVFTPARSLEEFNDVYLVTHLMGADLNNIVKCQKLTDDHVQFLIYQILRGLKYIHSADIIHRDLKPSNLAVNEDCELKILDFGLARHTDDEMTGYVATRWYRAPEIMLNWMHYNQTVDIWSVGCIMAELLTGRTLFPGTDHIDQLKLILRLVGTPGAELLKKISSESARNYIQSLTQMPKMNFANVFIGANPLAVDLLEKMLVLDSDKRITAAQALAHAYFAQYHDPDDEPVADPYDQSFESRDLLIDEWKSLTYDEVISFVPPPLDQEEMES
How it was run: as §1

[18] = biological target: T5, CaMKI_delta (Homo sapiens, UniProt Q8IU85)
T5 construct: gene CAMK1D
T5 sequence (Q8IU85 whole entry): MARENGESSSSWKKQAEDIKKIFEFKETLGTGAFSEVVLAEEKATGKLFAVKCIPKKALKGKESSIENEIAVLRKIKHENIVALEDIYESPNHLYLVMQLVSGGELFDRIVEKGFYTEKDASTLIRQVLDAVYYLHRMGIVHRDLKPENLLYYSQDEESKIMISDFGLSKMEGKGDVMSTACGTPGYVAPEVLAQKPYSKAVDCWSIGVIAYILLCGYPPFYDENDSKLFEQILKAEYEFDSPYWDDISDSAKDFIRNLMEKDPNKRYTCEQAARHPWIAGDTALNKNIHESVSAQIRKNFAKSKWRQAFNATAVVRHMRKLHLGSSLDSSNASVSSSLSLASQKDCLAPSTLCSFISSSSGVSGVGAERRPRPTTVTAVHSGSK
How it was run: as §1

[19] = biological target: T6, MKK6 (Homo sapiens, UniProt P52564)
T6 construct: gene MAP2K6
How it was run: as §1

[20] = biological target: ROCK2 (Homo sapiens, UniProt O75116)
How it was run: as §1

[21] = biological target: SPHK1 (Homo sapiens, UniProt Q9NYA1)
Chain of SPHK1 (Q9NYA1 whole entry): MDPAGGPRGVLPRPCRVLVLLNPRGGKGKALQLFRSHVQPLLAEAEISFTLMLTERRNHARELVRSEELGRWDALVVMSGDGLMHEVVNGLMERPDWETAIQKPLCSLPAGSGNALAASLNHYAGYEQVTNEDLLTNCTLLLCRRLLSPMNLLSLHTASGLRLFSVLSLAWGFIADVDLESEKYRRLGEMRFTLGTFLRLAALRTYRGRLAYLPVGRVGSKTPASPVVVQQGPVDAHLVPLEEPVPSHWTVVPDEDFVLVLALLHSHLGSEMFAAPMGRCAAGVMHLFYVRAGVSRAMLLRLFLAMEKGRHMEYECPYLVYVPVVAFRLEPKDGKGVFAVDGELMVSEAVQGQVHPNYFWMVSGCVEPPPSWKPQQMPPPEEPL
How it was run: as §1

[22] = biological target: SYK (Homo sapiens, UniProt P43405)
How it was run: as §1

[23] = biological target: CAMKK1 (Homo sapiens, UniProt Q8N5S9)
Chain of CAMKK1 (Q8N5S9 whole entry): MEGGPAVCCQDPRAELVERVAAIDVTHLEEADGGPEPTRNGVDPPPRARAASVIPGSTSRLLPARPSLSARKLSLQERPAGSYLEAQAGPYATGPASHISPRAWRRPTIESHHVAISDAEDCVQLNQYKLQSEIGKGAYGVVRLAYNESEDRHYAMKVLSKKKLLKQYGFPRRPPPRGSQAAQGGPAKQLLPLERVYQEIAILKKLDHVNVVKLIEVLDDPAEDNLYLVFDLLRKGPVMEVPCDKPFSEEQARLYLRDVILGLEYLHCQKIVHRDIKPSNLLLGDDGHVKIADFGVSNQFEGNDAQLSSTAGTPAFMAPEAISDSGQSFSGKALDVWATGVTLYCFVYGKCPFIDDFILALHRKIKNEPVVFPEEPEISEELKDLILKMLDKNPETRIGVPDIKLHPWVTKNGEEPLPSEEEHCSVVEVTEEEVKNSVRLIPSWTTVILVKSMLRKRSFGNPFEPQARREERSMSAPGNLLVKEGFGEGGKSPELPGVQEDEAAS
How it was run: as §1

Which results are given for `COc1cc2c(cn1)N(C)C(=O)[C@@H](NC(=O)c1nc3n(n1)[C@H](c1ccccc1)CC3)CC2` [GNE684, (S)-N-((S)-7-methoxy-1-methyl-2-oxo-2,3,4,5-tetrahydro-1H-pyrido[3,4-b]azepin-3-yl)-5-phenyl-6,7-dihydro-5H-pyrrolo[1,2-b][1,2,4]triazole-2-carboxamide]?
inhibition at 10 µM [1]: 14%; inhibition at 10 µM [2]: -3.5%; inhibition at 10 µM [3]: 7.5%; inhibition at 10 µM [4]: 13%; inhibition at 10 µM [5]: -2.5%; inhibition at 10 µM [6]: 11.5%; inhibition at 10 µM [7]: 7.5%; inhibition at 10 µM [8]: 2.5%; inhibition at 10 µM [9]: -0.5%; inhibition at 10 µM [10]: 2.5%; inhibition at 10 µM [11]: 4.5%; inhibition at 10 µM [12]: 6%; inhibition at 10 µM [13]: 5%; inhibition at 10 µM [14]: -0.5%; inhibition at 10 µM [15]: 4%; inhibition at 10 µM [16]: 7.5%; inhibition at 10 µM [17]: 3.5%; inhibition at 10 µM [18]: 7.5%; inhibition at 10 µM [19]: -4.5%; inhibition at 10 µM [20]: 1.5%; inhibition at 10 µM [21]: 4.5%; inhibition at 10 µM [22]: -1.5%; inhibition at 10 µM [23]: -7.5%
